Paper PMC6543911, “Discovery of Coumarin as Microtubule Affinity-Regulating Kinase 4 Inhibitor That Sensitize Hepatocellular Carcinoma to Paclitaxel” (Frontiers in Chemistry, 2019)
One block for each compound: values may come before it.

Legend:
MARK4 = molecular target: MARK4; parameters: method as in Naz et al., 2015; conditions: ref Naz et al., 2015; read-out: Kd between BX-795 and MARK4; cited from earlier work
MARK4 catalytic domain [1] = molecular target: T1, MARK4 catalytic domain (Homo sapiens, UniProt Q96L34); experiment: Kinase activity assay (ADP-Glo) using MARK4 as enzyme; type: biochemical; conditions: for IC50: MARK4 5 nM, 100 μM ATP, 5 μM MAP4, 30 min, duplicate, means ± SEM
T1 construct: The recombinant MARK4 catalytic domain was used as kinase; made in house; host or cells: E. coli BL21 (DE3)
Procedure: MARK4 catalytic domain sequence was subcloned into pET-28a vector. Protein expression in E. coli. BL21 (DE3) was induced by IPTG overnight at 16°C, and the cells were then pelleted by centrifugation at 4,000 rpm for 15 min and resuspended in 20 mL buffer (20 mM Tris-HCl, 150 mM NaCl, 25 mM imidazole pH 8.0). Proteins were purified by nickel-affinity chromatography followed by thrombin cleavage. The proteins were further purified by size-exclusion chromatography using a Superdex 75 column (GE Healthcare).
(§1) The kinase activity of MARK4 was measured via ADP-Glo™ kinase assay kit (Promega, USA) under manufacturer's instruction. The recombinant MARK4 catalytic domain was used as kinase. MARK4 (5 nM) activity was tested in a reaction (10 μL) containing 25 mM Tris (pH 7.6), 10 mM MgCl2, 150 mM NaCl, 1 mM EDTA, 1 mM DTT, 100 μM ATP, 5 μM MAP4 and varied concentrations of samples for 30 min. The reaction progress was monitored on Thermo Scientific Varioskan Flash Multimode Reader. Each data point was collected in duplicate and kinetic parameters were obtained using GraphPad Prism v6.0 software.

Src = Src (Homo sapiens, UniProt P12931); experiment: Kinase activity assay using Src as enzyme; type: biochemical; conditions: duplicate, means ± SEM
Procedure: (§2) With these coumarins in hand, we performed kinase assay using MARK4 catalytic domain as enzyme to test the MARK4 inhibitory activity of these samples. […] To characterize the selectivity of compound 50, we performed kinase activity assay by using PDK1, AKT1, Src, and MARK4 as enzyme.
as §1

PDK1 = molecular target: T2, PDK1 (Homo sapiens, UniProt O15530); experiment: Kinase activity assay using PDK1 as enzyme; type: biochemical; conditions: duplicate, means ± SEM
T2 sequence (O15530 1-556): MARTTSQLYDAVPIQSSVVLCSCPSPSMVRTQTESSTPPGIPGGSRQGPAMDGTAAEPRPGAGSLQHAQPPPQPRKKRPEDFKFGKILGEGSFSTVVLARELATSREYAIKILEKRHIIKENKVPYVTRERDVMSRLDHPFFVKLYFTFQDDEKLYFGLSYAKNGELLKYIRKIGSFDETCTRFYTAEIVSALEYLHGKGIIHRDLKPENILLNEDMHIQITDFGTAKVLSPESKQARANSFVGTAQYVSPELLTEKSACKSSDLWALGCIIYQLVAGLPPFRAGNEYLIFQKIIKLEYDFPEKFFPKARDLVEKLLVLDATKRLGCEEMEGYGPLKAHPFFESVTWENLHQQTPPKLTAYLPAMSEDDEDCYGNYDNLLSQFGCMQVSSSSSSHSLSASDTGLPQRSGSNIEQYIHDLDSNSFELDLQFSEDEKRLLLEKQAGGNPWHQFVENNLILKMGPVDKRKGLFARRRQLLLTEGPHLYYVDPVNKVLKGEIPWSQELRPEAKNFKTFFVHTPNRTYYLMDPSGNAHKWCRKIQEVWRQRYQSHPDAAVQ
Procedure: as §2, §1

AKT1 = AKT1 (Homo sapiens, UniProt P31749); experiment: Kinase activity assay using AKT1 as enzyme; type: biochemical; conditions: duplicate, means ± SEM
Procedure: as §2, §1

MARK4 catalytic domain [2] = molecular target: T1, MARK4 catalytic domain; experiment: Thermal shift assay; type: binding; conditions: sample 1 μM
Procedure: Recombinant MARK4 catalytic domain was diluted with PBS and divided into two aliquots, with one aliquot being treated with sample (1 μM) and the other aliquot with vehicle. After 20 min of incubation at room temperature, the respective mixtures were divided into smaller (40 μL) aliquots and heated individually at different temperatures for 3 min, followed by cooling at room temperature for 3 min. The appropriate temperatures were determined in preliminary CETSA experiments. The heated mixtures were centrifuged at 20,000 × g at 4°C for 20 min in order to separate the soluble fractions from precipitates. The supernatants were transferred to new microtubes and analyzed by HPLC.

HEK-293T cells = experiment: Cell viability assay in HEK-293T cells; type: cell-based; conditions: human normal HEK-293T cells
SMMC-7721 cells [3] = experiment: Cell apoptosis assay (Annexin V-FITC/PI flow cytometry) in SMMC-7721 cells; type: cell-based; conditions: 15 μM, 36 h
Procedure: (§3) HCC cells (2 × 10^5 cells/well) were plated in a 6-well plate and treated with samples at 37°C for 36 h. After incubation, the cells were harvested and washed with ice-cold PBS. Annexin V-FITC-PI apoptosis detection kit (Abcam, USA) was used for a direct observation of viable, early apoptotic, and late apoptotic cells. Annexin V-FITC and propidium iodide were added according to the manufacturer's instructions, and the samples were incubated in the dark for 15 min. The apoptosis ratio was analyzed using BD FACSCalibur flow cytometry.

HepG2 cells [4] = experiment: Cell viability assay (MTT) in HepG2 cells; type: cell-based
Procedure: (§4) HepG2 and SMMC-7721 cells were cultured in DMEM medium (Gibco) supplemented with 10% FBS (Gibco, USA). For transient transfection, cells were transfected with DNA by Lipofectamine 2000 (Thermo fisher, USA).
(§5) HCC cells (100 μL/each well, 20,000 cells/mL) were seeded in a 96-well culture plate and allowed to grow for 24 h in DMEM medium supplemented with 10% FBS and 1% penicillin/streptomycin sulfate. The cells were then treated with drugs or vehicle control and incubated in a 5% CO2 incubator for indicated time. At the end of incubation, 10 μL of MTT stock solution (5 mg/mL) was added into each well. The plate was continued to be incubated at 37°C for 4 h before the medium was removed. Then, DMSO (100 μL) was added into each well, followed by thorough shaking. The absorbance of the formazan product was measured at 570 nm on Thermo Scientific Varioskan Flash Multimode Reader. The IC50 value was obtained by fitting dose-response data to a three parametric non-linear regression model using GraphPad Prism 6.0 software.

SMMC-7721 cells [5] = experiment: Cell viability assay (MTT) in SMMC-7721 cells; type: cell-based
Procedure: as §4, §5

MARK4 catalytic domain [6] = molecular target: T1, MARK4 catalytic domain; experiment: Surface plasmon resonance (SPR) assay; type: binding; conditions: different sample concentrations, read-out: dissociation constant (Kd value) toward MARK4
Procedure: The interaction of small molecule with MARK4 was monitored by surface plasmon resonance (SPR) using a BIAcore T100 instrument (GE Healthcare, USA). In brief, recombinant MARK4 catalytic domain was immobilized on a carboxyl methylated dextran sensor chip (Sensor Chip CM3). A flow channel blocked by ethanolamine was used as control surface. The specific interaction of samples with the immobilized MARK4 catalytic domain was assessed. All samples were analyzed at a flow rate of 30 μL/min with 10 mM HEPES running buffer and contact time of 260 s. The surface was washed and regenerated with a 10 mM glycine-HCl buffer at pH 3.0 followed by a 30 min waiting time for dissolution after each experiment. The analyses were performed in BIAcore T100 evaluation software, version 2.0.2 (GE Healthcare, USA).

MAP4 phosphorylation = experiment: Immunoblotting of MAP4 phosphorylation in HepG2 cell lysates; type: cell-based; conditions: HepG2 cells, 15 μM, 36 h
Procedure: HepG2 cells (2 × 10^5 cells/well) were plated in a 6-well plate and treated with compound 50 (15 μM) and vehicle at 37°C for 36 h. Cells were harvested, washed with physiological saline, and lysed with RIPA lysis buffer (Beyotime) including phosphatase and protease cocktail (Bimake). Protein was quantified by BCA protein assay kit (Bestbio) and subjected to SDS-PAGE. The separated proteins were transferred onto PVDF membranes and probed with antibody (anti-p-MAP4, anti-MAP4, and anti-actin) and peroxidase-conjugated secondary antibody, which was followed by enhanced chemiluminescence detection (Amersham Biosciences).

HepG2 cells [7] = experiment: Colony formation assay of HepG2 cells; type: cell-based; conditions: compared with vehicle
HepG2 cells [8] = experiment: Cell apoptosis assay (Annexin V-FITC/PI flow cytometry) in HepG2 cells; type: cell-based
Procedure: as §3

T1 sequence (Q96L34 59-310 limits assumed): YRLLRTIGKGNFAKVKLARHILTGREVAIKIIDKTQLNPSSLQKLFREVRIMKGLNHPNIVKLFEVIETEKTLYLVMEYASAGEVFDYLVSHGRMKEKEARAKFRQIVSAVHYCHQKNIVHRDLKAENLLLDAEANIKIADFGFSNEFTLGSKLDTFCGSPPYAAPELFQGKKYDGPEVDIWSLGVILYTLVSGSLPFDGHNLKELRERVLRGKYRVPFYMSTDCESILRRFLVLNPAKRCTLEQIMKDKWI
Sequence of AKT1 (P31749 whole entry, species assumed): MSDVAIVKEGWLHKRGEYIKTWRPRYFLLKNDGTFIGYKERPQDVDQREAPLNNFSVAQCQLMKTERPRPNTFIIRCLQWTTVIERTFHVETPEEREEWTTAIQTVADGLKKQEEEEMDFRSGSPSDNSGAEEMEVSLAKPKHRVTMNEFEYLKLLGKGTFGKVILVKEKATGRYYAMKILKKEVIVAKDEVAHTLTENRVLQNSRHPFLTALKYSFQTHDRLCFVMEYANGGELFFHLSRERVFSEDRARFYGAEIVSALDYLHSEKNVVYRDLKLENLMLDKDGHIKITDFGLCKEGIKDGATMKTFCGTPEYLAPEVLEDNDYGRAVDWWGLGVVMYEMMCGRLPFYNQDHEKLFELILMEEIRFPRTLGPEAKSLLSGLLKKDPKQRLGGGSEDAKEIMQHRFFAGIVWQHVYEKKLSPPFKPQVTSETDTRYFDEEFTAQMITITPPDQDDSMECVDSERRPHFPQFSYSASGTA
Sequence of Src (P12931 whole entry, species assumed, the tested form may be a part): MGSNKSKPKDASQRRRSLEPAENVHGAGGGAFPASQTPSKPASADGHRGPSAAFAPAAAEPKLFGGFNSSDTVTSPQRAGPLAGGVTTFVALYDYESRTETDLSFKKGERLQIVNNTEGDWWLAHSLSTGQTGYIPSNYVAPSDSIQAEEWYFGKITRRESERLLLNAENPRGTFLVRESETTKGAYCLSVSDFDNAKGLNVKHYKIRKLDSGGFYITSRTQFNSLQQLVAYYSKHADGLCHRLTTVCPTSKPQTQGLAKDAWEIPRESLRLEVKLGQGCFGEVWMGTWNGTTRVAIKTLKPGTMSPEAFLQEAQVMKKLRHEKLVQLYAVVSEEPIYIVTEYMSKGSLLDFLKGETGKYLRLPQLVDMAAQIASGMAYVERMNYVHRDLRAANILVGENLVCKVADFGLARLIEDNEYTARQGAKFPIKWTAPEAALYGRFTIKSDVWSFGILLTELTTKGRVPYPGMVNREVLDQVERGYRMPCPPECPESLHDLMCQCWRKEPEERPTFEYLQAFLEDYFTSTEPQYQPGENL

- IC50 (MARK4 catalytic domain [1]): 4.99 ± 0.812 µM
- IC50 (Src): 5.87 ± 0.405 µM
- IC50 (PDK1): 1.68 ± 0.192 µM
- IC50 (AKT1): 2.87 ± 0.269 µM
SMILES: O=C(NCCCNc1nc(Nc2cccc(NC(=O)N3CCCC3)c2)ncc1I)c1cccs1 [BX-795, reference compound]
- Kd (MARK4): 6.46 µM

- temperature shift of MARK4 thermal stability (ΔT) (MARK4 catalytic domain [2]): 3.13 °C
- IC50 (MARK4 catalytic domain [1]): 1.3 ± 0.102 µM
- inhibition at 10 µM (MARK4 catalytic domain [1]; at 10 μM): ~80%
- IC50 (HepG2 cells [4]; Homo sapiens, HepG2 cells, MTT): 11.2 µM
- IC50 (SMMC-7721 cells [5]; Homo sapiens, MTT): 12.8 µM
- IC50 (Src): 19 ± 1.32 µM
- IC50 (PDK1): 5.97 ± 0.289 µM
- Kd (MARK4 catalytic domain [6]): 0.346 µM
- IC50 (AKT1): 11.8 ± 0.336 µM
SMILES: COc1ccc2oc(=O)c(C(=O)c3ccccc3)cc2c1 [Compound 50, 3-benzoyl-6-methoxy-2H-chromen-2-one]
- concentrations at which cell viability of HEK-293T cells was suppressed (HEK-293T cells): > 50 µM
- apoptosis: cell numbers of early and late apoptotic cells (SMMC-7721 cells [3]): obviously increased
- effect of MARK4-knockdown on anti-proliferative activity (HepG2 cells [4]; HepG2 cells transiently transfected with MARK4-knockdown vs control vectors): significantly attenuated
- inhibitory activity of paclitaxel in the presence of compound (HepG2 cells [4]; HepG2 cells, varied paclitaxel concentrations with 2.5 μM compound 50): remarkably enhanced
- viability at 2.5 µM (HepG2 cells [4]; Homo sapiens, HepG2 cells, 2.5 μM compound alone, read-out: cell viability upon treatment): > 80%
- viability at 2.5 µM (SMMC-7721 cells [5]; Homo sapiens, 2.5 μM compound alone, read-out: cell viability upon treatment): > 80%
- inhibitory activity of paclitaxel in the presence of compound (SMMC-7721 cells [5]; varied paclitaxel concentrations with 2.5 μM compound 50): remarkably enhanced
- level of MAP4 phosphorylation (MAP4 phosphorylation): decreased
- colony formation of HepG2 cells (HepG2 cells [7]): significantly suppressed
- apoptosis, single agent (HepG2 cells [8]; 2.5 μM alone): unable to trigger distinct apoptosis
- apoptosis: cell numbers of early and late apoptotic cells (HepG2 cells [8]; 15 μM, 36 h): obviously increased
- apoptosis, combination with paclitaxel (HepG2 cells [8]; compound 50 2.5 μM in combination with paclitaxel 2.5 μM): activated HCC apoptosis
